Patent publication US20250186408A1, “TREATMENT OF PHARMACORESISTANT EPILEPSY” (Katholieke Universiteit Leuven, priority 2021, published 2025)
Where two headings read alike, the source gives them in different places.

Key:
[1] = Intrinsic clearance (liver microsomes); type: in vitro ADME; settings: pooled liver microsomes, pH 7.4, human liver microsomes
Source text: In vitro ADME profiling of compounds was done by Eurofins Panlabs Inc (St Charles, MO, USA) using their ADME-Tox service (Cat Ref P375, Tier 1 ADME Panel). […] (28). The atom-based log P calculation method, called OsirisP, uses as an increment system and adds contributions of every atom based on its atom type. The prediction engine distinguishes a total of 368 atom types and was optimized using a training set of more than 5000 molecules with experimentally determined log P values. The free prediction engine has proven to outperform many alternative calculation methods (29).
Metabolic stability of the test compounds was evaluated in pooled liver microsomes from human species. Test compounds were pre-incubated with liver microsomes in phosphate buffer (pH 7.4) in a 37° C. shaking water bath for 5 min and an NADPH-generating system was added to initiate the reaction. Samples were collected at time points of 0, 15, 30, 45 and 60 min and extracted with acetonitrile/methanol. After centrifugation, the supernatants were analysed by HPLC-MS/MS. T1/2 was calculated from the slope of the line obtained by plotting the natural logarithmic percentage (Ln %) of the test compound remaining in the reaction mixture vs. incubation time (min). CLint (μL/min/mg protein) was calculated from T1/2 using following equation: […]

[2] = molecular target: HTR1B (Homo sapiens, UniProt P28222); assay: cAMP HTR1B Agonist; settings: for Emax: read-out: Max response
Protocol: In vitro pharmacological profiling of compounds was done against 78 functional assays for 47 common off-targets (30) by Eurofins DiscoverX Corporation (Fremont, CA, USA) using their SAFETYscan E/IC50 ELECT service (Cat Ref 87-1003DR, Safety47 Panel Dose Response). […] Compounds were tested in a range of 10 concentrations, following a 3-fold serial dilution, starting from 10 μM.
cAMP Hunter cell lines were expanded from freezer stocks. Prior to testing, cells were seeded in a total volume of 20 μL into white walled 384-well microplates and incubated at 37° C. cAMP modulation was determined using the DiscoverX HitHunter cAMP XS+ assay. For Gs agonist determination, cells were incubated with sample to induce response. For Gi agonist determination, cells were incubated with sample in the presence of EC80 forskolin to induce response. For both conditions, media was aspirated from cells and replaced with 15 μL 2:1 HBSS/10 mM HEPES:cAMP XS+ Ab reagent. Intermediate dilution of sample stocks was performed to generate 4× sample in assay buffer (containing 4×EC80 forskolin in the case of antagonist determination). 5 μL of 4× sample was added to cells and incubated at 37° C. or room temperature (RT) for 30 or 60 min. Final assay vehicle concentration was 1%. For antagonist determination, cells were pre-incubated with sample followed by agonist challenge at the EC80 concentration. Media was aspirated from cells and replaced with 10 μL 1:1 HBSS/HEPES:cAMP XS+ Ab reagent. 5 μL of 4× compound was added to the cells and incubated at 37° C. or RT for 30 min. 5 μL of 4×EC80 agonist was added to the cells and incubated at 37° C. or RT for 30 or 60 min. For Gi coupled GPCRs, EC80 forskolin was included. […] Microplates were read following signal generation with a PerkinElmer Envision™ instrument for chemiluminescent signal detection. Compound activity was analyzed using CBIS data analysis suite (ChemInnovation, CA).

[3] = molecular target: HTR2B (Homo sapiens, UniProt P41595); assay: Calcium Flux HTR2B Agonist; settings: for Emax: read-out: Max response
Protocol: In vitro pharmacological profiling of compounds was done against 78 functional assays for 47 common off-targets (30) by Eurofins DiscoverX Corporation (Fremont, CA, USA) using their SAFETYscan E/IC50 ELECT service (Cat Ref 87-1003DR, Safety47 Panel Dose Response). […] Compounds were tested in a range of 10 concentrations, following a 3-fold serial dilution, starting from 10 μM. The assays were performed utilizing the PathHunter enzyme fragment complementation (EFC) technology, FLIPR®-based cellular screening assays, and KINOMEscan kinase binding assays.
Prior to testing, cells (10,000 cells/well) were expanded from freezer stocks and seeded into a total volume of 50 μL into black walled, clear-bottom, Poly-D-lysine coated 384-well microplates and incubated at 37° C. […] Assays were performed in 1× dye loading buffer consisting of 1× Dye (DiscoverX, Calcium No Wash^PLUS kit, Catalog No. 90-0091), 1× Additive A and 2.5 mM Probenecid in HBSS/20 mM HEPES. Probenecid was prepared fresh. Prior to testing, media was aspirated from cells and replaced with 25 μL dye loading buffer. Cells were incubated for 45 min at 37° C. and then 20 min at RT. For agonist determination, 25 μL of 2× compound in HBSS/20 mM HEPES was added using a FLIPR Tetra (MDS). For antagonist determination, cells were pre-incubated with sample followed by agonist challenge at the EC80 concentration. 25 μL of 2× sample was added and cells were incubated for 30 min at RT in the dark to equilibrate plate temperature. After incubation, antagonist determination was initiated by addition of 25 μL of 1× compound with 3×EC80 agonist using FLIPR. For both agonist and antagonist formats, activity was measure on a FLIPR Tetra (MDS). Calcium mobilization was monitored for 2 min with a 5 sec baseline read.
FLIPR read—Area under the curve, was calculated for the entire 2 min read. Compound activity was analysed using CBIS data analysis suite (ChemInnovation, CA).

[4] = molecular target: ADRB2 (Homo sapiens, UniProt P07550); assay: cAMP ADRB2 Antagonist; type: cell-based; settings: for Emax: read-out: Max response
Protocol: cAMP Hunter cell lines were expanded from freezer stocks. […] For Gi agonist determination, cells were incubated with sample in the presence of EC80 forskolin to induce response. For both conditions, media was aspirated from cells and replaced with 15 μL 2:1 HBSS/10 mM HEPES:cAMP XS+ Ab reagent. […] 5 μL of 4× sample was added to cells and incubated at 37° C. or room temperature (RT) for 30 or 60 min. Final assay vehicle concentration was 1%. […] Media was aspirated from cells and replaced with 10 μL 1:1 HBSS/HEPES:cAMP XS+ Ab reagent. […] For Gi coupled GPCRs, EC80 forskolin was included. […] Compound activity was analyzed using CBIS data analysis suite (ChemInnovation, CA).

[5] = molecular target: T1, COX2 (Homo sapiens, UniProt P35354); assay: Enzymatic COX2 Inhibitor; type: biochemical; settings: for IC50: read-out: RC50, result type IC50; for Emax: read-out: Max response
T1 construct: purchased BPS Bioscience
T1 sequence (P35354 18-604): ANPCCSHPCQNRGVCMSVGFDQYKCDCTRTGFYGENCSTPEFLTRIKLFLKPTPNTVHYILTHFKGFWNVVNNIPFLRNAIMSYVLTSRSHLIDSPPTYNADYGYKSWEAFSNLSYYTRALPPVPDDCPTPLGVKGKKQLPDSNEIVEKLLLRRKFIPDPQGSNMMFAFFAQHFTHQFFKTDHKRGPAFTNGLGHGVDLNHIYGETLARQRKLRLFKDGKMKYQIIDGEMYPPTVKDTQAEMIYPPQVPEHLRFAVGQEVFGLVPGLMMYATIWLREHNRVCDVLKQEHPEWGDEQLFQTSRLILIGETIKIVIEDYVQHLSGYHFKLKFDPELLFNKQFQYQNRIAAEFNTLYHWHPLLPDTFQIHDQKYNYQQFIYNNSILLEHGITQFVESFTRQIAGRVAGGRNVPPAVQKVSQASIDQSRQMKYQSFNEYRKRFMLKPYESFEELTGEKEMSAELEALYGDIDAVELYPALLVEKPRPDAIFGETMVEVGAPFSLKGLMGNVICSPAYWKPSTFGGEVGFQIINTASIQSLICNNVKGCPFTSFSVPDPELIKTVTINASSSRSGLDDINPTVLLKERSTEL
Protocol: Enzyme preparations were sourced from various vendors-AChE (R&D Systems), COX1 and COX2 (BPS Bioscience), MAOA (Sigma), PDE3A and PDE4D2 (Signal Chem). AChE: enzyme and test compound were pre-incubated for 15 min at RT before substrate addition. Acetylthiocholine and DTNB were added and incubated at RT for 30 min. Signal was detected by measuring absorbance at 405 nm. COX1 and COX2: enzyme stocks were diluted in assay buffer (40 mM Tris-HCl, 1×PBS, 0.5 mM Phenol, 0.01% Tween 20 and 10 nM Hematin) and allowed to equilibrate with compounds at RT for 30 min (binding incubation). Arachidonic acid (1.7 μM) and Ampliflu Red (2.5 μM) were prepared and dispended into a reaction plate. Plates were read immediately on a fluorimeter with the emission detection at 590 nm and excitation wavelength 544 nm. MAOA: enzyme and test compound were pre-incubated for 15 min at 37° C. before substrate addition. The reaction was initiated by addition of kynuramine and incubated at 37° C. for 30 min. The reaction was terminated by addition of NaOH. The amount of 4-hydroquinoline formed was determined through spectrofluorometric readout with the emission detection at 380 nm and excitation wavelength 310 nm. PDE3A and PDE4D2: enzyme and test compound were pre-incubated for 15 min at RT before substrate addition. cAMP substrate (at a concentration equal to EC80) was added and incubated at RT for 30 min. Enzyme reaction was terminated by addition of 9 mM IBMX. Signal was detected using the HitHunter® cAMP detection kit. Microplates were transferred to a PerkinElmer Envision™ instrument and read out as described for each assay. […] For enzyme activity assays, percentage inhibition was calculated using the following equation: […]

HTR1B, sequence (P28222 whole entry): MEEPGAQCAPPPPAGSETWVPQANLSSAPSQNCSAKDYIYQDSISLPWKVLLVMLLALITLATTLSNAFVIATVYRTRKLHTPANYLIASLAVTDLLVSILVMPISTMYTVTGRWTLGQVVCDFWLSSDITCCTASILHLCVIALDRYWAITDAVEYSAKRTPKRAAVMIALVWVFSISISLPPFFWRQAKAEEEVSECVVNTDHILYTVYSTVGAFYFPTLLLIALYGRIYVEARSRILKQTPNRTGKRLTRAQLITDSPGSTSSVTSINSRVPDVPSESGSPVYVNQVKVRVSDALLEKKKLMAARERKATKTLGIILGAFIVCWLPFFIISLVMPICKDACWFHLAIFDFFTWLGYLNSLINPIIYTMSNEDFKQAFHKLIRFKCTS
ADRB2, sequence (P07550 whole entry): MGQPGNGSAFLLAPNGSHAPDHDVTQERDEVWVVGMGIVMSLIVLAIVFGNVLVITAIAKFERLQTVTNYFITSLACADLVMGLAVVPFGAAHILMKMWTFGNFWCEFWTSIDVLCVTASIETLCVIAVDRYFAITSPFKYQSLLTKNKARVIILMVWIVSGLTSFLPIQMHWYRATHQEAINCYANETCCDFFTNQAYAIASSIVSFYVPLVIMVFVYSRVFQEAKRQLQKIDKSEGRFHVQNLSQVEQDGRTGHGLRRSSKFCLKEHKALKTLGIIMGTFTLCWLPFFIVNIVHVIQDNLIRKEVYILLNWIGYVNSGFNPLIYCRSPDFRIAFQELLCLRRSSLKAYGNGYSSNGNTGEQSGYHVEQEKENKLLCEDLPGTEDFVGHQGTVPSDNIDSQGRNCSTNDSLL
HTR2B, sequence (P41595 whole entry): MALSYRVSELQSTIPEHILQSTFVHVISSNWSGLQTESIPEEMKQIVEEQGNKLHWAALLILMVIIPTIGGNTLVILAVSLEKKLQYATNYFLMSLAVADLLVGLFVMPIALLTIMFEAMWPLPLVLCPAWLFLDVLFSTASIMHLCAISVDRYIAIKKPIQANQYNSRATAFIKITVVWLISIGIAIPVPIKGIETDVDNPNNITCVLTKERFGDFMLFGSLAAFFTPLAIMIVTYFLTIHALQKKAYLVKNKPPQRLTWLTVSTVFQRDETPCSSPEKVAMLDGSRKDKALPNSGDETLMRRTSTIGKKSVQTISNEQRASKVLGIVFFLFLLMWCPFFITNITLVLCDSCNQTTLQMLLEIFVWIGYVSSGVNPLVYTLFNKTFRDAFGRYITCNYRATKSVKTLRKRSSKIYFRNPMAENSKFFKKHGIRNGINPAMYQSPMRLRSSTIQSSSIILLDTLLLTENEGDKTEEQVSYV

SMILES | half-life at 100 nM [1] [min] | microsomal CLint at 100 nM [1] [µL/min/mg] | EC50 [2] [µM] | Emax [2] [%] | EC50 [3] [µM] | Emax [3] [%] | IC50 [4] [µM] | Emax [4] [%] | IC50 ([5]; Enzymatic COX2 Inhibitor) [µM] | Emax [5] [%] | Emax ([4]; cAMP ADRB2 Antagonist) [%] | IC50 ([4]; cAMP ADRB2 Antagonist, read-out: RC50, result type IC50) [µM] | Emax ([5]; Enzymatic COX2 Inhibitor) [%]
CC(C)(C)c1ccc(C#CC(O)c2ccccc2)cc1 (racemic) [Compound 3.3, rac-3-(4-(tert-butyl)phenyl)-1-phenylprop-2-yn-1-ol] | 19 | 381 | > 10 | 5.2 | > 10 | 0 | > 10 | 0 | > 10 | 0 |  |  | 
Clc1cccc(C#Cc2n[nH]c3ncccc23)c1 [Compound 10.1, 3-((3-chlorophenyl)ethynyl)-1H-pyrazolo[3,4-b]pyridine] | 10 | 748 | > 10 | 9.3 | > 10 | 0 |  |  | > 10 |  | 39.9 | > 10 | 0
